Like-named read-outs stand apart in the source and are kept apart here.
Legend:
[1] = target: T1, CETP activity in the serum (Homo sapiens, UniProt P11597); test: Ex vivo activities on transgenic hCETP mice (serum CETP activity after oral administration); conditions: mouse, cholesteryl ester transport in serum
T1 construct: determination of its basal CETP activity in the serum; from tissue; host or cells: serum of transgenic hCETP mice
T1 sequence (P11597 18-493): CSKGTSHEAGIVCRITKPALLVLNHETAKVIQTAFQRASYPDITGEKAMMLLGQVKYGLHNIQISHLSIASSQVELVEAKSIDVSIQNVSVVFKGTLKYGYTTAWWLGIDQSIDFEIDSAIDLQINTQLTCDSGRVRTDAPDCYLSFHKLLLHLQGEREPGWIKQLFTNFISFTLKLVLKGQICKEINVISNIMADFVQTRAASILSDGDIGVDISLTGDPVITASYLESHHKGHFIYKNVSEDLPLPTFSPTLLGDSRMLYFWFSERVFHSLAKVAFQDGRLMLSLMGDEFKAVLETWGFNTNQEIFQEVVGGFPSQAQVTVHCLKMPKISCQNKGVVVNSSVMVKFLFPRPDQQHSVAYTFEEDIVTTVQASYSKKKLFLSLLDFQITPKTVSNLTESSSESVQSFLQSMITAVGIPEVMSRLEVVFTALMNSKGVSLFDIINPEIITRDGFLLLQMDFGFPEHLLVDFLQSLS
Protocol: To test for CETP-inhibitory activity, the substances are administered orally using a stomach tube to transgenic hCETP mice of our own breeding (Dinchuk et al. BBA (1995) 1295-301). To this end, male mice are randomly assigned to groups having an equal number of animals, as a rule n=3, one day before the start of the experiment. Before administration of the substance, blood is taken from each mouse by puncture of the retroorbital venous plexus for the determination of its basal CETP activity in the serum (T1). The test substance is then administered to the animals using the stomach tube. At specific times after administration of the test substance, blood is taken from the animals by puncture a second time (T2), as a rule 1, or 3 and 6 h after substance administration, but if appropriate this can also be carried out at another time.
In order to be able to assess the inhibitory activity of a substance, for each time, i.e. 1 or 3 or 6 h, a corresponding control group is employed whose animals only receive the formulating agent without substance. In the control animals, the second blood sampling per animal is carried out as in the substance-treated animals in order to be able to determine the change in the CETP activity without inhibitor over the corresponding experimental time interval (1, 3 or 6 h).
After termination of the clotting, the blood samples are centrifuged and the serum is removed by pipette.
For the determination of the CETP activity, the cholesteryl ester transport over 4 h is determined. To this end, as a rule 2 μl of serum are employed in the test batch and the test is carried out as described under “CETP fluorescence test”.
The differences in the cholesteryl ester transport (pM CE*/h (T2)−pM CE*/h (T1)) are calculated for each animal and averaged in the groups. A substance which at one of the times reduces the cholesteryl ester transport by >30% is regarded as active.

Syrian golden hamsters = test: In vivo activity in Syrian golden hamsters (HDL cholesterol); conditions: perorally
Protocol: In experiments for the determination of the oral action on lipoproteins and triglycerides, test substance dissolved in DMSO and 0.5% suspended in Tylose are administered perorally by means of a stomach tube to Syrian golden hamsters bred in-house. For the determination of the CETP activity, before the start of the experiment blood is taken by retro-orbital puncture (about 250 μl). The test substances are then administered perorally by means of a stomach tube. The control animals receive identical volumes of solvent without test substance. The feed is then withdrawn from the animals and blood is taken at various times—up to 24 hours after substance administration—by puncture of the retroorbital venous plexus.
Clotting is terminated by incubation at 4° C. overnight, then centrifugation is carried out for 10 minutes at 6000×g. The content of cholesterol and triglycerides in the serum thus obtained is determined with the aid of modified commercially obtainable enzymatic tests (Ecoline 25 Cholesterol 1.14830.0001 Merck Diagnostica, Ecoline 25 Triglycerides 1.14856.0001 Merck Diagnostica). Serum is suitably diluted using physiological saline solution.
10 μl of serum dilution are treated with 200 μl of Ecoline 25 reagent in 96-hole plates and incubated for 10 minutes at room temperature. The optical density is then determined at a wavelength of 490 nm using an automatic plate reader. The triglyceride or cholesterol concentration contained in the samples is determined with the aid of a standard curve measured in parallel.
The determination of the content of HDL cholesterol is carried out after precipitation of the ApoB-containing lipoproteins (Sigma 352-4 HDL cholesterol reagent) according to the manufacturer's instructions.

transgenic hCETP mice = test: In vivo activity in transgenic hCETP mice (HDL); conditions: stomach tube
Protocol: In experiments for the determination of the oral action on lipoproteins and triglycerides, test substance is administered to transgenic mice using a stomach tube (Dinchuck, Hart, Gonzalez, Karmann, Schmidt, Wirak; BBA (1995), 1295, 301). Before the start of the experiment, blood is taken from the mice retroorbitally in order to determine cholesterol and triglycerides in the serum. The serum is obtained as described above for hamsters by incubation at 4° C. overnight and subsequent centrifugation at 6000×g. […] The change in the parameters measured is expressed as the percentage change compared with the starting value.

[2] = 1 h after administration, read-out: % inhibition at 30 mg/kg, 1 h
[3] = 3 h after administration, read-out: % inhibition at 30 mg/kg, 3 h
[4] = 6 h after administration, read-out: % inhibition at 30 mg/kg, 6 h

| SMILES | inhibition at 30 mg/kg [1, 2] [%] | inhibition at 30 mg/kg [1, 3] [%] | inhibition at 30 mg/kg [1, 4] [%] | % HDL increase after 24 h (Dose: 2 × 10 mg/kg) (Syrian golden hamsters) [%] | % HDL increase after 4 d (Dose: 4 × 10 mg/kg) (transgenic hCETP mice) [%] |
| --- | --- | --- | --- | --- | --- |
| CC(C)c1nc2c(c(-c3ccccc3)c1[C@@H](O)c1ccc(C(F)(F)F)cc1)[C@@H](O)CC1(CCC1)C2 [Example 53, (5S)-2-Isopropyl-4-phenyl-3-[(S)-hydroxy-(4-trifluoromethylphenyl)-methyl]-7-spirocyclobutyl-5,6,7,8-tetrahydroquinolin-5-ol] | 69 | 51 | 44 | 19 | – |
| CC(C)c1nc2c(c(-c3ccc(F)cc3)c1[C@@H](O)c1ccc(C(F)(F)F)cc1)[C@@H](O)CC1(CCC1)C2 [Example 51, (5S)-2-Isopropyl-4-(4-fluorophenyl)-3-[(S)-hydroxy-(4-trifluoromethylphenyl)-methyl]-7-spirocyclobutyl-5,6,7,8-tetrahydroquinolin-5-ol] | 72 | 64 | 60 | 17 | 57 |
| CC(C)c1nc2c(c(-c3cccs3)c1[C@@H](O)c1ccc(C(F)(F)F)cc1)[C@@H](O)CC1(CCC1)C2 [Example 61, (5S)-2-Isopropyl-4-(2-thienyl)-3-[(S)-hydroxy-(4-trifluoromethylphenyl)-methyl]-7-spirocyclobutyl-5,6,7,8-tetrahydroquinolin-5-ol] | 71 | 49 | 35 | – | – |
